Measured values as given in PubChem BioAssay (NCI).
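Tested at 5 concentrations; 48 h exposure; 96-well plates; endpoints linearly interpolated, else capped at highest concentration. At the TGI there is no net growth.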

The compounds below were run on OVCAR-3 ovarian (assay: inhibition of tumour cell growth, NCI panel, 48 h).
Cc1ccc2c(c1)CN1c3ccc(C)cc3CN2C1c1ccccc1O was tested, and the TGI was > 100 µM.
For N#CNC(N)=NCc1ccccc1, the TGI was > 100 µM.
For CC1=N/C(=C\c2ccc(/C=C3/N=C(C)OC3=O)cc2)C(=O)O1, the TGI was > 100 µM.
For O=C(NCc1ccccc1)c1cc2ccccc2oc1=Nc1cccc(C(F)(F)F)c1, the TGI was > 100 µM.
CC1=NN(C(=O)Cc2ccccc2)C(=O)/C1=C\c1ccc(O)cc1 was tested, and the TGI was > 100 µM.
In the case of CC1=CC2C3(C)C(C)(C(C)=CP3(=O)c3c(C(C)C)cc(C(C)C)cc3C(C)C)C1P2(=O)c1c(C(C)C)cc(C(C)C)cc1C(C)C (configuration not stated), the TGI is reported as 6.43 µM.

Each compound was assayed on 786-0 renal (assay: inhibition of tumour cell growth, NCI panel, 48 h).
In the case of O=C1Oc2ccccc2C(=O)/C1=C1/C=C(c2ccccc2)SS1, the TGI is reported as > 100 µM.
For Cc1ccc2c(c1)CN1c3ccc(C)cc3CN2C1c1ccccc1O, the TGI was > 100 µM.
N#CNC(N)=NCc1ccccc1 was tested, and the TGI was > 100 µM.
With CC1=N/C(=C\c2ccc(/C=C3/N=C(C)OC3=O)cc2)C(=O)O1 the TGI was > 100 µM.
For O=C(NCc1ccccc1)c1cc2ccccc2oc1=Nc1cccc(C(F)(F)F)c1, the TGI was > 100 µM.
CC1=NN(C(=O)Cc2ccccc2)C(=O)/C1=C\c1ccc(O)cc1 was tested, and the TGI was > 100 µM.
In the case of CC1=CC2C3(C)C(C)(C(C)=CP3(=O)c3c(C(C)C)cc(C(C)C)cc3C(C)C)C1P2(=O)c1c(C(C)C)cc(C(C)C)cc1C(C)C (configuration not stated), the TGI is reported as 5.47 µM.

The compounds below were run on SNB-78 CNS (assay: inhibition of tumour cell growth, NCI panel, 48 h).
In the case of Cc1ccc2c(c1)CN1c3ccc(C)cc3CN2C1c1ccccc1O, the TGI is reported as > 100 µM.
In the case of CC1=N/C(=C\c2ccc(/C=C3/N=C(C)OC3=O)cc2)C(=O)O1, the TGI is reported as > 100 µM.
In the case of CC1=NN(C(=O)Cc2ccccc2)C(=O)/C1=C\c1ccc(O)cc1, the TGI is reported as > 100 µM.

What follows are compounds tested on KM12 colon (assay: inhibition of tumour cell growth, NCI panel, 48 h).
O=C1Oc2ccccc2C(=O)/C1=C1/C=C(c2ccccc2)SS1 was tested, and the TGI was > 100 µM.
For Cc1ccc2c(c1)CN1c3ccc(C)cc3CN2C1c1ccccc1O, the TGI was > 100 µM.
With N#CNC(N)=NCc1ccccc1 the TGI was > 100 µM.
For CC1=N/C(=C\c2ccc(/C=C3/N=C(C)OC3=O)cc2)C(=O)O1, the TGI was > 100 µM.
O=C(NCc1ccccc1)c1cc2ccccc2oc1=Nc1cccc(C(F)(F)F)c1 was tested, and the TGI was > 100 µM.
In the case of CC1=NN(C(=O)Cc2ccccc2)C(=O)/C1=C\c1ccc(O)cc1, the TGI is reported as > 100 µM.
Compound CC1=CC2C3(C)C(C)(C(C)=CP3(=O)c3c(C(C)C)cc(C(C)C)cc3C(C)C)C1P2(=O)c1c(C(C)C)cc(C(C)C)cc1C(C)C (configuration not stated) has a TGI of 4.05 µM.

Each compound was assayed on SF-268 CNS (assay: inhibition of tumour cell growth, NCI panel, 48 h).
With O=C1Oc2ccccc2C(=O)/C1=C1/C=C(c2ccccc2)SS1 the TGI was > 100 µM.
For Cc1ccc2c(c1)CN1c3ccc(C)cc3CN2C1c1ccccc1O, the TGI was > 100 µM.
N#CNC(N)=NCc1ccccc1 was tested, and the TGI was > 100 µM.
For CC1=N/C(=C\c2ccc(/C=C3/N=C(C)OC3=O)cc2)C(=O)O1, the TGI was > 100 µM.
In the case of O=C(NCc1ccccc1)c1cc2ccccc2oc1=Nc1cccc(C(F)(F)F)c1, the TGI is reported as > 100 µM.
CC1=NN(C(=O)Cc2ccccc2)C(=O)/C1=C\c1ccc(O)cc1 was tested, and the TGI was > 100 µM.
Work on CC1=CC2C3(C)C(C)(C(C)=CP3(=O)c3c(C(C)C)cc(C(C)C)cc3C(C)C)C1P2(=O)c1c(C(C)C)cc(C(C)C)cc1C(C)C (configuration not stated) yielded a TGI of 12.1 µM.

Each compound was assayed on SNB-19 CNS (assay: inhibition of tumour cell growth, NCI panel, 48 h).
In the case of O=C1Oc2ccccc2C(=O)/C1=C1/C=C(c2ccccc2)SS1, the TGI is reported as > 100 µM.
In the case of CC1=N/C(=C\c2ccc(/C=C3/N=C(C)OC3=O)cc2)C(=O)O1, the TGI is reported as > 100 µM.
For O=C(NCc1ccccc1)c1cc2ccccc2oc1=Nc1cccc(C(F)(F)F)c1, the TGI was > 100 µM.
CC1=NN(C(=O)Cc2ccccc2)C(=O)/C1=C\c1ccc(O)cc1 was tested, and the TGI was > 100 µM.
In the case of CC1=CC2C3(C)C(C)(C(C)=CP3(=O)c3c(C(C)C)cc(C(C)C)cc3C(C)C)C1P2(=O)c1c(C(C)C)cc(C(C)C)cc1C(C)C (configuration not stated), the TGI is reported as 15.8 µM.

Each compound was assayed on HCT-116 colon (assay: inhibition of tumour cell growth, NCI panel, 48 h).
With O=C1Oc2ccccc2C(=O)/C1=C1/C=C(c2ccccc2)SS1 the TGI was > 100 µM.
In the case of Cc1ccc2c(c1)CN1c3ccc(C)cc3CN2C1c1ccccc1O, the TGI is reported as > 100 µM.
N#CNC(N)=NCc1ccccc1 was tested, and the TGI was > 100 µM.
With CC1=N/C(=C\c2ccc(/C=C3/N=C(C)OC3=O)cc2)C(=O)O1 the TGI was > 100 µM.
In the case of O=C(NCc1ccccc1)c1cc2ccccc2oc1=Nc1cccc(C(F)(F)F)c1, the TGI is reported as > 100 µM.
In the case of CC1=NN(C(=O)Cc2ccccc2)C(=O)/C1=C\c1ccc(O)cc1, the TGI is reported as > 100 µM.
For CC1=CC2C3(C)C(C)(C(C)=CP3(=O)c3c(C(C)C)cc(C(C)C)cc3C(C)C)C1P2(=O)c1c(C(C)C)cc(C(C)C)cc1C(C)C (configuration not stated), the TGI was 4.02 µM.

These compounds were tested on HL-60(TB) leukemia (assay: inhibition of tumour cell growth, NCI panel, 48 h).
Compound O=C1Oc2ccccc2C(=O)/C1=C1/C=C(c2ccccc2)SS1 has a TGI of 45.2 µM.
For Cc1ccc2c(c1)CN1c3ccc(C)cc3CN2C1c1ccccc1O, the TGI was > 100 µM.
For N#CNC(N)=NCc1ccccc1, the TGI was > 100 µM.
O=C(NCc1ccccc1)c1cc2ccccc2oc1=Nc1cccc(C(F)(F)F)c1 showed a TGI of 49.9 µM.
For CC1=NN(C(=O)Cc2ccccc2)C(=O)/C1=C\c1ccc(O)cc1, the TGI was > 100 µM.
